Patent US12077503B2, “Substituted cyclic amides and their use as herbicides” (FMC CORPORATION, priority 2015, dated 2024)

What was measured:
Assay type in all cases: in vivo
corn (Zea mays) [1] = experiment: Test G Pre-Emergence Protocol; settings: Zea mays, pre-emergence, 312 h, evaluated after 13 days
Protocol: (§1) Seeds of corn (Zea mays), giant foxtail (Setaria faberi), barnyardgrass (Echinochloa crus-galli), ivy-leaved morning glory (Ipomoea hederacea), redroot pigweed (Amaranthus retroflexus) and velvetleaf (Abutilon theophrasti) were sown in standard soil in pots. After cultivation for one day under controlled conditions in a glasshouse (at 24/16° C., day/night; 14 hours light; 65% humidity), the plants were sprayed with an aqueous spray solution derived from the formulation of the technical active ingredient in acetone/water (50:50) solution containing 0.5% Tween 20 (polyoxyethylene sorbitan monolaurate, CAS RN 9005-64-5) to give a final dose of 15.625, 62.5 or 250 g/ha of test compound.
(§2) The test plants were then grown on under controlled conditions in a glasshouse (at 24/16° C., day/night; 14 hours light; 65% humidity) and watered twice daily. After 13 days the test was evaluated (100=total damage to plant; 0=no damage to plant). A dash (-) means no test result.

[2] = test system: giant foxtail (Setaria faberi); experiment: Test G Pre-Emergence Protocol; settings: Setaria faberi, pre-emergence, 312 h, evaluated after 13 days
Protocol: as §1, §2

[3] = test system: velvetleaf (Abutilon theophrasti); experiment: Test G Pre-Emergence Protocol; settings: Abutilon theophrasti, pre-emergence, 312 h, evaluated after 13 days
Protocol: as §1, §2

[4] = test system: barnyardgrass (Echinochloa crus-galli); experiment: Test G Post-Emergence Protocol; settings: Echinochloa crus-galli, post-emergence, 312 h
Protocol: as §1, with “8 days” for “one day”
as §2

corn (Zea mays) [5] = experiment: Test G Post-Emergence Protocol; settings: Zea mays, post-emergence, 312 h
Protocol: as §1, with “8 days” for “one day”
as §2

[6] = test system: giant foxtail (Setaria faberi); experiment: Test G Post-Emergence Protocol; settings: Setaria faberi, post-emergence, 312 h
Protocol: as §1, with “8 days” for “one day”
as §2

[7] = test system: ivy-leaved morning glory (Ipomoea hederacea); experiment: Test G Post-Emergence Protocol; settings: Ipomoea, post-emergence, 312 h
Protocol: as §1, with “8 days” for “one day”
as §2

[8] = test system: redroot pigweed (Amaranthus retroflexus); experiment: Test G Post-Emergence Protocol; settings: Amaranthus retroflexus, post-emergence, 312 h
Protocol: as §1, with “8 days” for “one day”
as §2

[9] = test system: velvetleaf (Abutilon theophrasti); experiment: Test G Post-Emergence Protocol; settings: Abutilon theophrasti, post-emergence, 312 h
Protocol: as §1, with “8 days” for “one day”
as §2

[10] = test system: barnyardgrass (Echinochloa crus-galli); experiment: Test B flooded paddy test; settings: Echinochloa crus-galli, Flood, 250 g ai/ha; scale of 0 to 100 where 0 is no effect and 100 is complete control; read-out: Barnyardgrass plant response rating
Procedure, shortened: (§3)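 Response scored visually against untreated controls, 0 = no effect and 100 = complete control, 13–15 d after treatment in the greenhouse. Compounds added to paddy water held 3 cm above soil surface. Treatment given at 2-leaf stage.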

[11] = test system: ducksalad (Heteranthera limosa); experiment: Test B flooded paddy test; settings: Heteranthera limosa, Flood, 250 g ai/ha; scale of 0 to 100 where 0 is no effect and 100 is complete control; read-out: Ducksalad plant response rating
Procedure, shortened: as §3

rice (Oryra sativa) = experiment: Test B flooded paddy test; settings: Oryza sativa, Flood, 250 g ai/ha; scale of 0 to 100 where 0 is no effect and 100 is complete control; read-out: Rice plant response rating
Procedure, shortened: as §3

[12] = test system: sedge, umbrella (small-flower umbrella sedge, Cyperus difformis); experiment: Test B flooded paddy test; settings: Cyperus difformis, Flood, 250 g ai/ha; scale of 0 to 100 where 0 is no effect and 100 is complete control; read-out: Sedge, Umbrella plant response rating
Procedure, shortened: as §3

## CN1C[C@@H](c2ccc(C(F)(F)F)cc2)[C@H](C(=O)Nc2ncc(C(F)(F)F)s2)C1=O (racemic) [Compound 1504]
Corn (Zea mays) [1]; 15.625 g ai/ha, read-out: Corn damage rating (100=total damage to plant; 0=no damage to plant)
  plant injury at 15.625 g/ha: 0%
Corn (Zea mays) [1]; 62.5 g ai/ha, 100=total damage to plant, 0=no damage to plant, read-out: plant damage rating, Corn
  plant injury at 62.5 g/ha: 0%
Corn (Zea mays) [1]; 250 g ai/ha, read-out: Corn damage rating (100=total damage to plant; 0=no damage to plant)
  plant injury at 250 g/ha: 0%
[2]; 15.625 g ai/ha, read-out: Foxtail, Giant damage rating (100=total damage to plant; 0=no damage to plant)
  pest or weed control at 15.625 g/ha: 0%
[2]; 62.5 g ai/ha, 100=total damage to plant, 0=no damage to plant, read-out: plant damage rating, Foxtail, Giant
  pest or weed control at 62.5 g/ha: 0%
[2]; 250 g ai/ha, read-out: Foxtail, Giant damage rating (100=total damage to plant; 0=no damage to plant)
  pest or weed control at 250 g/ha: 0%
[3]; 15.625 g ai/ha, read-out: Velvetleaf damage rating (100=total damage to plant; 0=no damage to plant)
  pest or weed control at 15.625 g/ha: 0%
[3]; 62.5 g ai/ha, 100=total damage to plant, 0=no damage to plant, read-out: plant damage rating, Velvetleaf
  pest or weed control at 62.5 g/ha: 0%
[3]; 250 g ai/ha, read-out: Velvetleaf damage rating (100=total damage to plant; 0=no damage to plant)
  pest or weed control at 250 g/ha: 0%
[4]; 15.625 g ai/ha, evaluated after 13 days (100=total damage to plant; 0=no damage to plant), read-out: Barnyardgrass damage rating
  pest or weed control at 15.625 g/ha: 0%
[4]; 62.5 g ai/ha, evaluated after 13 days, read-out: Barnyardgrass damage rating (100=total damage to plant; 0=no damage to plant)
  pest or weed control at 62.5 g/ha: 0%
[4]; 250 g ai/ha, evaluated after 13 days, read-out: damage to plant, Barnyardgrass (100=total damage to plant; 0=no damage to plant)
  pest or weed control at 250 g/ha: 0%
Corn (Zea mays) [5]; 15.625 g ai/ha, evaluated after 13 days (100=total damage to plant; 0=no damage to plant), read-out: Corn damage rating
  plant injury at 15.625 g/ha: 0%
Corn (Zea mays) [5]; 62.5 g ai/ha, evaluated after 13 days, read-out: Corn damage rating (100=total damage to plant; 0=no damage to plant)
  plant injury at 62.5 g/ha: 0%
Corn (Zea mays) [5]; 250 g ai/ha, evaluated after 13 days, read-out: damage to plant, Corn (100=total damage to plant; 0=no damage to plant)
  plant injury at 250 g/ha: 0%
[6]; 15.625 g ai/ha, evaluated after 13 days (100=total damage to plant; 0=no damage to plant), read-out: Foxtail, Giant damage rating
  pest or weed control at 15.625 g/ha: 0%
[6]; 62.5 g ai/ha, evaluated after 13 days, read-out: Foxtail, Giant damage rating (100=total damage to plant; 0=no damage to plant)
  pest or weed control at 62.5 g/ha: 0%
[6]; 250 g ai/ha, evaluated after 13 days, read-out: damage to plant, Foxtail, Giant (100=total damage to plant; 0=no damage to plant)
  pest or weed control at 250 g/ha: 0%
[7]; 15.625 g ai/ha, evaluated after 13 days (100=total damage to plant; 0=no damage to plant), read-out: Morningglory, Ivy-leaved damage rating
  pest or weed control at 15.625 g/ha: 0%
[7]; 62.5 g ai/ha, evaluated after 13 days, read-out: Morningglory, Ivy-leaved damage rating (100=total damage to plant; 0=no damage to plant)
  pest or weed control at 62.5 g/ha: 0%
[7]; 250 g ai/ha, evaluated after 13 days, read-out: damage to plant, Morningglory, Ivy-leaved (100=total damage to plant; 0=no damage to plant)
  pest or weed control at 250 g/ha: 0%
[8]; 15.625 g ai/ha, evaluated after 13 days (100=total damage to plant; 0=no damage to plant), read-out: Pigweed, Redroot damage rating
  pest or weed control at 15.625 g/ha: 0%
[8]; 62.5 g ai/ha, evaluated after 13 days, read-out: Pigweed, Redroot damage rating (100=total damage to plant; 0=no damage to plant)
  pest or weed control at 62.5 g/ha: 0%
[8]; 250 g ai/ha, evaluated after 13 days, read-out: damage to plant, Pigweed, Redroot (100=total damage to plant; 0=no damage to plant)
  pest or weed control at 250 g/ha: 0%
[9]; 15.625 g ai/ha, evaluated after 13 days (100=total damage to plant; 0=no damage to plant), read-out: Velvetleaf damage rating
  pest or weed control at 15.625 g/ha: 0%
[9]; 62.5 g ai/ha, evaluated after 13 days, read-out: Velvetleaf damage rating (100=total damage to plant; 0=no damage to plant)
  pest or weed control at 62.5 g/ha: 0%
[9]; 250 g ai/ha, evaluated after 13 days, read-out: damage to plant, Velvetleaf (100=total damage to plant; 0=no damage to plant)
  pest or weed control at 250 g/ha: 0%

## C=CCN1C[C@H](c2ccc(OC)c(F)c2)[C@@H](C(=O)Nc2ccccc2C(F)(F)F)C1=O [Compound 723]
[10]
  pest or weed control at 250 g/ha: 0%
[11]
  pest or weed control at 250 g/ha: 0%
Rice (Oryra sativa)
  pest or weed control at 250 g/ha: 0%
[12]
  pest or weed control at 250 g/ha: 0%

## O=C1NC[C@H](c2ccc3c(c2)OCO3)[C@H]1C(=O)Nc1cccc(F)c1F [Compound 731]
[10]
  pest or weed control at 250 g/ha: 60%
[11]
  pest or weed control at 250 g/ha: 100%
Rice (Oryra sativa)
  pest or weed control at 250 g/ha: 20%
[12]
  pest or weed control at 250 g/ha: 0%

## Cc1ccc([C@H]2CN(C)C(=O)[C@@H]2C(=O)Nc2cccc(F)c2C)cc1C [Compound 732]
[10]
  pest or weed control at 250 g/ha: 45%
[11]
  pest or weed control at 250 g/ha: 100%
Rice (Oryra sativa)
  pest or weed control at 250 g/ha: 0%
[12]
  pest or weed control at 250 g/ha: 0%

## CCc1cc(CC)cc([C@H]2CN(C)C(=O)[C@@H]2C(=O)Nc2ccccc2C(F)(F)F)c1 [Compound 737]
[10]
  pest or weed control at 250 g/ha: 0%
[11]
  pest or weed control at 250 g/ha: 0%
Rice (Oryra sativa)
  pest or weed control at 250 g/ha: 0%
[12]
  pest or weed control at 250 g/ha: 0%

## O=C1NC[C@H](c2ccc(C(F)(F)F)cc2)[C@H]1C(=O)Nc1ccccc1C1CC1 [Compound 746]
[10]
  pest or weed control at 250 g/ha: 0%
[11]
  pest or weed control at 250 g/ha: 95%
Rice (Oryra sativa)
  pest or weed control at 250 g/ha: 0%
[12]
  pest or weed control at 250 g/ha: 0%

## CN1C[C@H](c2ccc(C(F)(F)F)cc2)[C@@H](C(=O)Nc2ccccc2C2CC2)C1=O [Compound 747]
[10]
  pest or weed control at 250 g/ha: 0%
[11]
  pest or weed control at 250 g/ha: 90%
Rice (Oryra sativa)
  pest or weed control at 250 g/ha: 15%
[12]
  pest or weed control at 250 g/ha: 0%

## O=C1NC[C@H](c2cccc(C(F)(F)F)c2)[C@H]1C(=O)Nc1ccccc1C1CC1 [Compound 748]
[10]
  pest or weed control at 250 g/ha: 0%
[11]
  pest or weed control at 250 g/ha: 75%
Rice (Oryra sativa)
  pest or weed control at 250 g/ha: 25%
[12]
  pest or weed control at 250 g/ha: 0%

## O=C1NC[C@H](c2cscn2)[C@H]1C(=O)Nc1ccccc1F [Compound 752]
[10]
  pest or weed control at 250 g/ha: 0%
[11]
  pest or weed control at 250 g/ha: 0%
Rice (Oryra sativa)
  pest or weed control at 250 g/ha: 0%
[12]
  pest or weed control at 250 g/ha: 0%

## O=C1NC[C@H](c2cccc3c2OC(F)(F)O3)[C@H]1C(=O)Nc1ccccc1F [Compound 754]
[10]
  pest or weed control at 250 g/ha: 0%
[11]
  pest or weed control at 250 g/ha: 40%
Rice (Oryra sativa)
  pest or weed control at 250 g/ha: 0%
[12]
  pest or weed control at 250 g/ha: 0%

## O=C1NC[C@H](c2cc(F)c(F)c(F)c2)[C@H]1C(=O)Nc1ccc(F)c(F)c1F [Compound 756]
[10]
  pest or weed control at 250 g/ha: 50%
[11]
  pest or weed control at 250 g/ha: 100%
Rice (Oryra sativa)
  pest or weed control at 250 g/ha: 0%
[12]
  pest or weed control at 250 g/ha: 0%

## CN1C[C@H](c2cc(F)c(F)c(F)c2)[C@@H](C(=O)Nc2ccc(F)c(F)c2F)C1=O [Compound 757]
[10]
  pest or weed control at 250 g/ha: 75%
[11]
  pest or weed control at 250 g/ha: 100%
Rice (Oryra sativa)
  pest or weed control at 250 g/ha: 80%
[12]
  pest or weed control at 250 g/ha: 0%

## CN1C[C@H](c2cc(F)cc(F)c2)[C@@H](C(=O)Nc2ccc(F)cc2C(F)(F)F)C1=O [Compound 758]
[10]
  pest or weed control at 250 g/ha: 45%
[11]
  pest or weed control at 250 g/ha: 100%
Rice (Oryra sativa)
  pest or weed control at 250 g/ha: 0%
[12]
  pest or weed control at 250 g/ha: 0%
